According to US20100055032A1, “METHODS FOR […] IMAGING USING NANOP[…] AGENTS” (NanoScan Imaging LLC, priority 2001, published 2010):

Experiment: CT evaluation of initial uptake and vascular distribution of PH-50 in normal rabbits
Assay type: in vivo, New Zealand white rabbits
Conditions: for Percent Uptake (%) Aorta / Percent Uptake (%) Brain / Percent Uptake (%) Cardiac / Percent Uptake (%) Liver / Percent Uptake (%) Portal Vein / Percent Uptake (%) Posterior Vena Cava: pre-treatment = 0
Description: One (1) mL of PH-50 injected as a bolus intravenously (IV) via the jugular vein (n=2); and three (3) mL with a five (5) minute infusion via IV by way of the jugular vein (n=2); using the criteria set forth below in Table 1:
The animals were anesthetized via mask using Isoflorene® prior to each study and maintained under anesthesia during CT scan procedures. The animals were recovered and were mobile and allowed to drink up to the 8 hour study. Digital Subtraction Angiography (DSA) was performed during initial injection (one IV bolus and one infusion), then each rabbit was immediately moved to CT. The CT was performed after the initial injection (one IV bolus and one infusion).
All CT imaging was performed using a GE® Sytec Sri Helical Scanner (Milwaukee, Wis.) and the images were stored as DICOM3 on GE® optical and CD-Rom medium. The CT imaging parameters for these studies were 1 mm consecutive slices at 120 kvp at 1.5 sec, 200 mA. All scans were done with a standard phantom placed beneath the animal. All CT scans performed were of the entire animal (rostral nasal area to pelvis). Contrast attenuation was measured in Hounsfield units (HU) and expressed as percent (%) uptake, taking into account the calibration from the phantom. The iodine concentration and iodine uptake were estimated post-injection from vascular, lung and liver tissues.

[1] = Rabbit No. 1151 (infusion), 0 min
[2] = Rabbit No. 1151 (infusion), 5 min
[3] = Rabbit No. 1151 (infusion), 15 min
[4] = Rabbit No. 1151 (infusion), 60 min
[5] = Rabbit No. 1151 (infusion), 480 min
[6] = Rabbit No. 1151, infusion 3 mL/5 min IV (150 mg/kg), 0 min post injection
[7] = Rabbit No. 1151, infusion 3 mL/5 min IV (150 mg/kg), 5 min post injection
[8] = Rabbit No. 1151, infusion 3 mL/5 min IV (150 mg/kg), 15 min post injection
[9] = Rabbit No. 1151, infusion 3 mL/5 min IV (150 mg/kg), 60 min post injection
[10] = Rabbit No. 1151, infusion 3 mL/5 min IV (150 mg/kg), 480 min post injection
[11] = Rabbit No. 1156 (bolus), 15 min
[12] = Rabbit No. 1156 (bolus), 60 min
[13] = Rabbit No. 1156 (bolus), 480 min
[14] = Rabbit No. 1156, bolus injection 1 mL IV (50 mg/kg), 0 min post injection
[15] = Rabbit No. 1156, bolus injection 1 mL IV (50 mg/kg), 5 min post injection
[16] = Rabbit No. 1156, bolus injection 1 mL IV (50 mg/kg), 15 min post injection
[17] = Rabbit No. 1156, bolus injection 1 mL IV (50 mg/kg), 60 min post injection
[18] = Rabbit No. 1156, bolus injection 1 mL IV (50 mg/kg), 480 min post injection
[19] = Rabbit No. 1159, bolus injection 1 mL IV (50 mg/kg), 15 min post injection
[20] = Rabbit No. 1159, bolus injection 1 mL IV (50 mg/kg), 60 min post injection
[21] = Rabbit No. 1159, bolus injection 1 mL IV (50 mg/kg), 480 min post injection
[22] = Rabbit No. 1166, infusion 3 mL/5 min IV (150 mg/kg), 15 min post injection
[23] = Rabbit No. 1166, infusion 3 mL/5 min IV (150 mg/kg), 60 min post injection
[24] = Rabbit No. 1166, infusion 3 mL/5 min IV (150 mg/kg), 480 min post injection

CCOC(=O)CCCCCOC(=O)c1c(I)c(NC(C)=O)c(I)c(NC(C)=O)c1I [PH-50, 6-ethoxy-6-oxohexy-3,5-bis(acetylamino)-2,4,6-triiodobenzoate]
Percent Uptake (%) Aorta [1]: 44%
Percent Uptake (%) Brain [1]: 2%
Percent Uptake (%) Cardiac [1]: 33%
Percent Uptake (%) Liver [1]: 8%
Percent Uptake (%) Portal Vein [1]: 48%
Percent Uptake (%) Posterior Vena Cava [1]: 54%
Percent Uptake (%) Aorta [2]: 14%
Percent Uptake (%) Brain [2]: 17%
Percent Uptake (%) Cardiac [2]: 61%
Percent Uptake (%) Liver [2]: 32%
Percent Uptake (%) Portal Vein [2]: 91%
Percent Uptake (%) Posterior Vena Cava [2]: 44%
Percent Uptake (%) Aorta [3]: 37%
Percent Uptake (%) Brain [3]: 6%
Percent Uptake (%) Cardiac [3]: 4%
Percent Uptake (%) Liver [3]: 29%
Percent Uptake (%) Portal Vein [3]: 56%
Percent Uptake (%) Posterior Vena Cava [3]: 0%
Percent Uptake (%) Aorta [4]: 39%
Percent Uptake (%) Brain [4]: 14%
Percent Uptake (%) Cardiac [4]: 6%
Percent Uptake (%) Liver [4]: 21%
Percent Uptake (%) Portal Vein [4]: −5%
Percent Uptake (%) Posterior Vena Cava [4]: −43%
Percent Uptake (%) Aorta [5]: −62%
Percent Uptake (%) Brain [5]: 90.1%
Percent Uptake (%) Cardiac [5]: 0%
Percent Uptake (%) Liver [5]: −19%
Percent Uptake (%) Portal Vein [5]: 7%
Percent Uptake (%) Posterior Vena Cava [5]: −21%
Hounsfield Units (HU) Aorta [6]: 49.08 HU
Hounsfield Units (HU) Brain [6]: 44.89 HU
Hounsfield Units (HU) Cardiac [6]: 48.32 HU
Hounsfield Units (HU) Liver [6]: 93.08 HU
Hounsfield Units (HU) Portal Vein [6]: 54.03 HU
Hounsfield Units (HU) Posterior Vena Cava [6]: 73.00 HU
Hounsfield Units (HU) Aorta [7]: 38.85 HU
Hounsfield Units (HU) Brain [7]: 51.38 HU
Hounsfield Units (HU) Cardiac [7]: 58.67 HU
Hounsfield Units (HU) Liver [7]: 113.68 HU
Hounsfield Units (HU) Portal Vein [7]: 69.54 HU
Hounsfield Units (HU) Posterior Vena Cava [7]: 68.54 HU
Hounsfield Units (HU) Aorta [8]: 46.77 HU
Hounsfield Units (HU) Brain [8]: 46.75 HU
Hounsfield Units (HU) Cardiac [8]: 37.81 HU
Hounsfield Units (HU) Liver [8]: 111.22 HU
Hounsfield Units (HU) Portal Vein [8]: 56.85 HU
Hounsfield Units (HU) Posterior Vena Cava [8]: 47.46 HU
Hounsfield Units (HU) Aorta [9]: 47.62 HU
Hounsfield Units (HU) Brain [9]: 50.38 HU
Hounsfield Units (HU) Cardiac [9]: 38.49 HU
Hounsfield Units (HU) Liver [9]: 104.26 HU
Hounsfield Units (HU) Portal Vein [9]: 34.46 HU
Hounsfield Units (HU) Posterior Vena Cava [9]: 27.00 HU
Hounsfield Units (HU) Aorta [10]: 13.00 HU
Hounsfield Units (HU) Brain [10]: 34.37 HU
Hounsfield Units (HU) Cardiac [10]: 36.35 HU
Hounsfield Units (HU) Liver [10]: 69.57 HU
Hounsfield Units (HU) Portal Vein [10]: 38.81 HU
Hounsfield Units (HU) Posterior Vena Cava [10]: 37.72 HU
Percent Uptake (%) Aorta (Rabbit No. 1156 (bolus), 0 min): 317.0%
Percent Uptake (%) Brain (Rabbit No. 1156 (bolus), 0 min): −8%
Percent Uptake (%) Cardiac (Rabbit No. 1156 (bolus), 0 min): 38%
Percent Uptake (%) Liver (Rabbit No. 1156 (bolus), 0 min): 13%
Percent Uptake (%) Portal Vein (Rabbit No. 1156 (bolus), 0 min): 24%
Percent Uptake (%) Posterior Vena Cava (Rabbit No. 1156 (bolus), 0 min): 168.0%
Percent Uptake (%) Aorta (Rabbit No. 1156 (bolus), 5 min): 118%
Percent Uptake (%) Brain (Rabbit No. 1156 (bolus), 5 min): −15%
Percent Uptake (%) Cardiac (Rabbit No. 1156 (bolus), 5 min): 15%
Percent Uptake (%) Liver (Rabbit No. 1156 (bolus), 5 min): 26%
Percent Uptake (%) Portal Vein (Rabbit No. 1156 (bolus), 5 min): 38%
Percent Uptake (%) Posterior Vena Cava (Rabbit No. 1156 (bolus), 5 min): 253%
Percent Uptake (%) Aorta [11]: 162%
Percent Uptake (%) Brain [11]: −8%
Percent Uptake (%) Cardiac [11]: 12%
Percent Uptake (%) Liver [11]: 22%
Percent Uptake (%) Portal Vein [11]: 90%
Percent Uptake (%) Posterior Vena Cava [11]: 112%
Percent Uptake (%) Aorta [12]: 63%
Percent Uptake (%) Brain [12]: −3%
Percent Uptake (%) Cardiac [12]: 18%
Percent Uptake (%) Liver [12]: 19%
Percent Uptake (%) Portal Vein [12]: 108%
Percent Uptake (%) Posterior Vena Cava [12]: 33%
Percent Uptake (%) Aorta [13]: 23%
Percent Uptake (%) Brain [13]: −3%
Percent Uptake (%) Cardiac [13]: 4%
Percent Uptake (%) Liver [13]: −12%
Percent Uptake (%) Portal Vein [13]: −5%
Percent Uptake (%) Posterior Vena Cava [13]: 91%
Hounsfield Units (HU) Aorta [14]: 65.00 HU
Hounsfield Units (HU) Brain [14]: 29.00 HU
Hounsfield Units (HU) Cardiac [14]: 54.00 HU
Hounsfield Units (HU) Liver [14]: 85.00 HU
Hounsfield Units (HU) Portal Vein [14]: 52.00 HU
Hounsfield Units (HU) Posterior Vena Cava [14]: 51.00 HU
Hounsfield Units (HU) Aorta [15]: 34.00 HU
Hounsfield Units (HU) Brain [15]: 27.00 HU
Hounsfield Units (HU) Cardiac [15]: 45.00 HU
Hounsfield Units (HU) Liver [15]: 95.32 HU
Hounsfield Units (HU) Portal Vein [15]: 58.08 HU
Hounsfield Units (HU) Posterior Vena Cava [15]: 67.00 HU
Hounsfield Units (HU) Aorta [16]: 40.85 HU
Hounsfield Units (HU) Brain [16]: 29.03 HU
Hounsfield Units (HU) Cardiac [16]: 44.02 HU
Hounsfield Units (HU) Liver [16]: 91.73 HU
Hounsfield Units (HU) Portal Vein [16]: 79.65 HU
Hounsfield Units (HU) Posterior Vena Cava [16]: 40.31 HU
Hounsfield Units (HU) Aorta [17]: 25.38 HU
Hounsfield Units (HU) Brain [17]: 30.57 HU
Hounsfield Units (HU) Cardiac [17]: 46.52 HU
Hounsfield Units (HU) Liver [17]: 89.56 HU
Hounsfield Units (HU) Portal Vein [17]: 87.37 HU
Hounsfield Units (HU) Posterior Vena Cava [17]: 25.31 HU
Hounsfield Units (HU) Aorta [18]: 19.20 HU
Hounsfield Units (HU) Brain [18]: 30.50 HU
Hounsfield Units (HU) Cardiac [18]: 40.65 HU
Hounsfield Units (HU) Liver [18]: 66.15 HU
Hounsfield Units (HU) Portal Vein [18]: 39.73 HU
Hounsfield Units (HU) Posterior Vena Cava [18]: 36.24 HU
Hounsfield Units (HU) Aorta [19]: 43.80 HU
Hounsfield Units (HU) Brain [19]: 32.30 HU
Hounsfield Units (HU) Cardiac [19]: 30.13 HU
Hounsfield Units (HU) Liver [19]: 87.08 HU
Hounsfield Units (HU) Portal Vein [19]: 53.54 HU
Hounsfield Units (HU) Posterior Vena Cava [19]: 52.17 HU
Hounsfield Units (HU) Aorta [20]: 43.83 HU
Hounsfield Units (HU) Brain [20]: 34.39 HU
Hounsfield Units (HU) Cardiac [20]: 44.96 HU
Hounsfield Units (HU) Liver [20]: 94.17 HU
Hounsfield Units (HU) Portal Vein [20]: 89.92 HU
Hounsfield Units (HU) Posterior Vena Cava [20]: 65.48 HU
Hounsfield Units (HU) Aorta [21]: 21.00 HU
Hounsfield Units (HU) Brain [21]: 31.00 HU
Hounsfield Units (HU) Cardiac [21]: 33.73 HU
Hounsfield Units (HU) Liver [21]: 76.24 HU
Hounsfield Units (HU) Portal Vein [21]: 39.15 HU
Hounsfield Units (HU) Posterior Vena Cava [21]: 25.36 HU
Hounsfield Units (HU) Aorta [22]: 20.82 HU
Hounsfield Units (HU) Brain [22]: 27.15 HU
Hounsfield Units (HU) Cardiac [22]: 47.51 HU
Hounsfield Units (HU) Liver [22]: 117.99 HU
Hounsfield Units (HU) Portal Vein [22]: 63.85 HU
Hounsfield Units (HU) Posterior Vena Cava [22]: 43.09 HU
Hounsfield Units (HU) Aorta [23]: 23.08 HU
Hounsfield Units (HU) Brain [23]: 34.85 HU
Hounsfield Units (HU) Cardiac [23]: 37.66 HU
Hounsfield Units (HU) Liver [23]: 108.39 HU
Hounsfield Units (HU) Portal Vein [23]: 59.87 HU
Hounsfield Units (HU) Posterior Vena Cava [23]: 25.08 HU
Hounsfield Units (HU) Aorta [24]: 14.30 HU
Hounsfield Units (HU) Brain [24]: 38.90 HU
Hounsfield Units (HU) Cardiac [24]: 35.31 HU
Hounsfield Units (HU) Liver [24]: 63.20 HU
Hounsfield Units (HU) Portal Vein [24]: 42.92 HU
Hounsfield Units (HU) Posterior Vena Cava [24]: 39.35 HU
adverse reactions to the compound (normal rabbits, 1 mL bolus or 3 mL/5 min infusion IV): no adverse reactions
Hounsfield units in the liver post-injection (normal rabbits, CT): dramatic increase
